pIC50: −log10 of the molar value.
Columns and labels:
[1] = tested on: IL-1β release upon NLRP3 activation in human whole blood; test: Whole blood (WB) assay; assay type: cell-based; conditions: sodium salts tested, LPS 1 μg/ml 3 h, compound 30 min, ATP 5 mM 1 h, IL-1β by HTRF
Method: The compounds of the present disclosure were tested for their inhibitory activity against IL-1β release upon NLRP3 activation in human whole blood.
Whole blood was drawn from single healthy donors and treated with sodium heparin anticoagulant. Blood was diluted with cell culture media at a 9:5 ratio, seeded in a 96-well plate and incubated for 3 h with lipopolysaccharide (LPS, 1 μg/ml final concentration diluted 1000× from a 1 mg/ml stock solution). The compounds of the present disclosure were added (a single compound concentration per well) and the blood was incubated for 30 min. Next, the blood was stimulated with ATP (5 mM final concentration diluted 20× from a 100 mM stock solution) for 1 h and the cell culture media from the wells were collected for further analysis.
The release of IL-1β into the media was determined by quantitative detection of IL-1β in the media using HTRF®, CisBio cat. No. 62HIL1BPEH. Briefly, cell culture supernatant were diluted as appropriate to bring IL-1β levels within the HTRF® detection range (36-6500 pg/ml) and subsequently dispensed into the assay plate containing antibodies labelled with the HTRF® donor and acceptor. A microplate spectrophotometer (BMG) was used to detect signals at […] and 620 nm.

[2] = tested on: IL-1β release upon NLRP3 activation in peripheral blood mononuclear cells (PBMC); test: PBMC IC50 determination assay; assay type: cell-based; conditions: sodium salts tested, LPS 1 μg/ml 3 h, compound 30 min, ATP 5 mM 1 h, IL-1β by HTRF
Method: The compounds of the present disclosure were tested for their inhibitory activity against IL-1β release upon NLRP3 activation in peripheral blood mononuclear cells (PBMC).
PBMC were isolated from buffy coats by density gradient centrifugation on Histopaque-1077 (Sigma, cat no. 10771). Isolated cells were seeded into the wells (280,000 cells/well) of a 96-well plate and incubated for 3 h with lipopolysaccharide (LPS, 1 μg/ml diluted 1000× from a 1 mg/ml stock solution). The compounds of the present disclosure were added (a single compound per well) and the cells were incubated for 30 min. Next, the cells were stimulated with ATP (5 mM final concentration diluted 20× from a 100 mM stock solution) for 1 h and the cell culture media from the wells were collected for further analysis.
The release of IL-1β into the media was determined by quantitative detection of IL-1β in the media using HTRF®, CisBio cat. No. 62HIL1BPEH. Briefly, cell culture supernatant were dispensed directly into the assay plate containing antibodies labelled with the HTRF® donor and acceptor. A microplate spectrophotometer (BMG) was used to detect signals at 655 nm and 620 nm. The detection range of IL-1β HTRF® was 39-6500 pg/ml.

SMILES | pIC50 [1] | pIC50 [2]
CN(C)CCN(c1cnn(C)c1)S(=O)(=O)NC(=O)Nc1c2c(cc3c1CCC3)CCC2 [Compound 8, 3-{[2-(Dimethylamino)ethyl](1-methyl-1H-pyrazol-4-yl)sulfamoyl}-1-(1,2,3,5,6,7-hexahydro-s-indacen-4-yl)urea] | > 6.00 | > 7.00
COCC(COC)N(c1cnn(C)c1)S(=O)(=O)NC(=O)Nc1c2c(cc3c1CCC3)CCC2 [Compound 2, 3-[(1,3-Dimethoxypropan-2-yl)(1-methyl-1H-pyrazol-4-yl)sulfamoyl]-1-(1,2,3,5,6,7-hexahydro-s-indacen-4-yl)urea] | 5.52 to 6.00 | 6.30 to 7.00
COCCCN(c1cnn(C)c1)S(=O)(=O)NC(=O)Nc1c2c(cc3c1CCC3)CCC2 [Compound 7, 1-(1,2,3,5,6,7-Hexahydro-s-indacen-4-yl)-3-[(3-methoxypropyl)(1-methyl-1H-pyrazol-4-yl)sulfamoyl]urea] | 5.00 to 5.52 | 6.30 to 7.00
CN(C)C1CC(N(c2cnn(C)c2)S(=O)(=O)NC(=O)Nc2c3c(cc4c2CCC4)CCC3)C1 (stereo not shown) [Compound 6, 3-{[3-(Dimethylamino)cyclobutyl](1-methyl-1H-pyrazol-4-yl)sulfamoyl}-1-(1,2,3,5,6,7-hexahydro-s-indacen-4-yl)urea] | 5.52 to 6.00 | > 7.00
Cn1cc(N(CCC(C)(C)O)S(=O)(=O)NC(=O)Nc2c3c(cc4c2CCC4)CCC3)cn1 [Compound 4, 1-(1,2,3,5,6,7-Hexahydro-s-indacen-4-yl)-3-[(3-hydroxy-3-methylbutyl)(1-methyl-1H-pyrazol-4-yl)sulfamoyl]urea] | 5.52 to 6.00 | > 7.00
CN(C)C1CCC(N(c2cnn(C)c2)S(=O)(=O)NC(=O)Nc2c3c(cc4c2CCC4)CCC3)C1 (stereo not shown) [Compound 5, 1-{[3-(Dimethylamino)cyclopentyl](1-methyl-1H-pyrazol-4-yl)sulfamoyl}-3-(1,2,3,5,6,7-hexahydro-s-indacen-4-yl)urea] | 5.00 to 5.52 | 6.30 to 7.00
Cn1cc(N(CC(C)(C)O)S(=O)(=O)NC(=O)Nc2c3c(cc4c2CCC4)CCC3)cn1 [Compound 3, 1-(1,2,3,5,6,7-Hexahydro-s-indacen-4-yl)-3-[(2-hydroxy-2-methylpropyl)(1-methyl-1H-pyrazol-4-yl)sulfamoyl]urea] | 5.52 to 6.00 | 6.30 to 7.00
CN(C)CCCN(c1cnn(C)c1)S(=O)(=O)NC(=O)Nc1c2c(cc3c1CCC3)CCC2 [Compound 10, 3-{[3-(Dimethylamino)propyl](1-methyl-1H-pyrazol-4-yl)sulfamoyl}-1-(1,2,3,5,6,7-hexahydro-s-indacen-4-yl)urea] | 4.70 to 5.00 | 6.30 to 7.00
CN(CCN(c1cnn(C)c1)S(=O)(=O)NC(=O)Nc1c2c(cc3c1CCC3)CCC2)C1COC1 [Compound 11, 1-(1,2,3,5,6,7-Hexahydro-s-indacen-4-yl)-3-({2-[methyl(oxetan-3-yl)amino]-ethyl}(1-methyl-1H-pyrazol-4-yl)sulfamoyl)urea] | 5.52 to 6.00 | > 7.00
CC(C)n1cc(N(CCN(C)C)S(=O)(=O)NC(=O)Nc2c3c(cc4c2CCC4)CCC3)cn1 [Compound 9, 1-{[2-(Dimethylamino)ethyl][1-(propan-2-yl)-1H-pyrazol-4-yl]sulfamoyl}-3-(1,2,3,5,6,7-hexahydro-s-indacen-4-yl)urea] | > 6.00 | > 7.00
COCCN(c1cnn(C)c1)S(=O)(=O)NC(=O)Nc1c2c(cc3c1CCC3)CCC2 [Compound 1, 1-(1,2,3,5,6,7-Hexahydro-s-indacen-4-yl)-3-[(2-methoxyethyl)(1-methyl-1H-pyrazol-4-yl)sulfamoyl]urea] | 5.52 to 6.00 | > 7.00

Source: patent US12054461B2, “Sulfonylurea derivatives and uses thereof” (NodThera Limited, priority 2019, dated 2024)
